Test results reported in PubChem BioAssay AID1918993 (Molecular Pharmacology Branch, DTP, NCI, 2023).

Tested on: 233499-124-R-J3-PDC complex spheroid growth
Test: Anticancer human tumor 233499-124-R-J3-PDC patient-derived colon adenocarcinoma cell line growth inhibition [AhR]
Conditions: for IC50: curve of first compound; for viability, T/C: stronger effect = lower value
Method in brief: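 Spheroids combined tumor cells with HUVEC endothelial cells and human MSCs as stroma. AhR antagonists were paired with standard or investigational drugs, each dosed in half-log steps down from near clinical Cmax, or from 10 microM where Cmax was unknown.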

[1] = second compound 0.1 µM, first compound 0.0316 µM
[2] = second compound 0.1 µM, first compound 0.1 µM
[3] = second compound 0.1 µM, first compound 0.316 µM
[4] = second compound 0.1 µM, first compound 1 µM
[5] = second compound 0.316 µM, first compound 0.0316 µM
[6] = second compound 0.316 µM, first compound 0.1 µM
[7] = second compound 0.316 µM, first compound 0.316 µM
[8] = second compound 0.316 µM, first compound 1 µM
[9] = second compound 1 µM, first compound 0.0316 µM
[10] = second compound 1 µM, first compound 0.1 µM
[11] = second compound 1 µM, first compound 0.316 µM
[12] = second compound 1 µM, first compound 1 µM
[13] = second compound 3.16 µM, first compound 0.0316 µM
[14] = second compound 3.16 µM, first compound 0.1 µM
[15] = second compound 3.16 µM, first compound 0.316 µM
[16] = second compound 3.16 µM, first compound 1 µM
[17] = second compound 10 µM, first compound 0.0316 µM
[18] = second compound 10 µM, first compound 0.1 µM
[19] = second compound 10 µM, first compound 0.316 µM
[20] = second compound 10 µM, first compound 1 µM
[21] = second compound 0.1 µM, first compound 3.16 µM
[22] = second compound 0.1 µM, first compound 10 µM
[23] = second compound 0.316 µM, first compound 3.16 µM
[24] = second compound 0.316 µM, first compound 10 µM
[25] = second compound 1 µM, first compound 3.16 µM
[26] = second compound 1 µM, first compound 10 µM
[27] = second compound 3.16 µM, first compound 3.16 µM
[28] = second compound 3.16 µM, first compound 10 µM
[29] = second compound 10 µM, first compound 3.16 µM
[30] = second compound 10 µM, first compound 10 µM
[31] = second compound 0.1 µM, first compound 0.00949 µM
[32] = second compound 0.1 µM, first compound 0.03 µM
[33] = second compound 0.1 µM, first compound 0.0949 µM
[34] = second compound 0.1 µM, first compound 0.3 µM
[35] = second compound 0.316 µM, first compound 0.00949 µM
[36] = second compound 0.316 µM, first compound 0.03 µM
[37] = second compound 0.316 µM, first compound 0.0949 µM
[38] = second compound 0.316 µM, first compound 0.3 µM
[39] = second compound 1 µM, first compound 0.00949 µM
[40] = second compound 1 µM, first compound 0.03 µM
[41] = second compound 1 µM, first compound 0.0949 µM
[42] = second compound 1 µM, first compound 0.3 µM
[43] = second compound 3.16 µM, first compound 0.00949 µM
[44] = second compound 3.16 µM, first compound 0.03 µM
[45] = second compound 3.16 µM, first compound 0.0949 µM
[46] = second compound 3.16 µM, first compound 0.3 µM
[47] = second compound 10 µM, first compound 0.00949 µM
[48] = second compound 10 µM, first compound 0.03 µM
[49] = second compound 10 µM, first compound 0.0949 µM
[50] = second compound 10 µM, first compound 0.3 µM
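Further: spheroids exposed to agents for seven days before reading.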

CC1COCCN1c1cc(-c2ccnn2C)c2ccnc(-c3ccn[nH]3)c2n1 (stereo not given) + CC(CO)NC(=O)c1cc(-c2ccc(Cl)cc2)nn(-c2cnn(C)c2)c1=O
IC50 (second compound 0.1 µM): 516 nM | IC50 (second compound 0.316 µM): 609 nM | IC50 (second compound 1 µM): 547 nM | IC50 (second compound 3.16 µM): 650 nM | IC50 (second compound 10 µM): 230 nM | viability, T/C (second compound 0.1 µM, first compound 0.00316 µM): 97.6% | viability, T/C (second compound 0.1 µM, first compound 0.01 µM): 95.3% | viability, T/C [1]: 89.1% | viability, T/C [2]: 83.9% | viability, T/C [3]: 63% | viability, T/C [4]: 31.7% | viability, T/C (second compound 0.316 µM, first compound 0.00316 µM): 90.3% | viability, T/C (second compound 0.316 µM, first compound 0.01 µM): 102% | viability, T/C [5]: 90.3% | viability, T/C [6]: 84.9% | viability, T/C [7]: 68.1% | viability, T/C [8]: 36.5% | viability, T/C (second compound 1 µM, first compound 0.00316 µM): 106% | viability, T/C (second compound 1 µM, first compound 0.01 µM): 101% | viability, T/C [9]: 97.9% | viability, T/C [10]: 82.5% | viability, T/C [11]: 60.8% | viability, T/C [12]: 38.2% | viability, T/C (second compound 3.16 µM, first compound 0.00316 µM): 81.9% | viability, T/C (second compound 3.16 µM, first compound 0.01 µM): 86.9% | viability, T/C [13]: 87.2% | viability, T/C [14]: 85.6% | viability, T/C [15]: 60.8% | viability, T/C [16]: 43.6% | viability, T/C (second compound 10 µM, first compound 0.00316 µM): 83.3% | viability, T/C (second compound 10 µM, first compound 0.01 µM): 90% | viability, T/C [17]: 80.8% | viability, T/C [18]: 59% | viability, T/C [19]: 49% | viability, T/C [20]: 33.4%

CC1COCCN1c1cc(C2(S(C)(=N)=O)CC2)nc(-c2ccnc3[nH]ccc23)n1 (stereo not given) + CC(CO)NC(=O)c1cc(-c2ccc(Cl)cc2)nn(-c2cnn(C)c2)c1=O
IC50 (second compound 0.1 µM): > 10000 nM | IC50 (second compound 0.316 µM): > 10000 nM | IC50 (second compound 1 µM): > 10000 nM | IC50 (second compound 3.16 µM): > 10000 nM | IC50 (second compound 10 µM): > 10000 nM | viability, T/C [1]: 101% | viability, T/C [2]: 97.2% | viability, T/C [3]: 94.2% | viability, T/C [4]: 91% | viability, T/C [21]: 75.8% | viability, T/C [22]: 74.1% | viability, T/C [5]: 88.2% | viability, T/C [6]: 89.1% | viability, T/C [7]: 97.3% | viability, T/C [8]: 83% | viability, T/C [23]: 87.4% | viability, T/C [24]: 72.1% | viability, T/C [9]: 79.7% | viability, T/C [10]: 96.2% | viability, T/C [11]: 90.3% | viability, T/C [12]: 92.3% | viability, T/C [25]: 86.9% | viability, T/C [26]: 69% | viability, T/C [13]: 98.8% | viability, T/C [14]: 95.8% | viability, T/C [15]: 91.3% | viability, T/C [16]: 85.9% | viability, T/C [27]: 82.5% | viability, T/C [28]: 68.3% | viability, T/C [17]: 72.5% | viability, T/C [18]: 79% | viability, T/C [19]: 82.2% | viability, T/C [20]: 79.5% | viability, T/C [29]: 61.8% | viability, T/C [30]: 56.6%

COc1ccc([C@@H](O)c2cc(-c3ncnc4cc(N5CCOCC5)ccc34)c(F)cc2Cl)nn1 + CC(CO)NC(=O)c1cc(-c2ccc(Cl)cc2)nn(-c2cnn(C)c2)c1=O
IC50 (second compound 0.1 µM): > 10000 nM | IC50 (second compound 0.316 µM): > 10000 nM | IC50 (second compound 1 µM): > 10000 nM | IC50 (second compound 3.16 µM): > 10000 nM | IC50 (second compound 10 µM): > 10000 nM | viability, T/C [1]: 104% | viability, T/C [2]: 96% | viability, T/C [3]: 88.8% | viability, T/C [4]: 87% | viability, T/C [21]: 92.8% | viability, T/C [22]: 84.7% | viability, T/C [5]: 108% | viability, T/C [6]: 99.1% | viability, T/C [7]: 89.7% | viability, T/C [8]: 83% | viability, T/C [23]: 75.6% | viability, T/C [24]: 75.3% | viability, T/C [9]: 96.2% | viability, T/C [10]: 86.5% | viability, T/C [11]: 76.8% | viability, T/C [12]: 86.4% | viability, T/C [25]: 73.9% | viability, T/C [26]: 74.8% | viability, T/C [13]: 98.3% | viability, T/C [14]: 86.3% | viability, T/C [15]: 84.7% | viability, T/C [16]: 88.2% | viability, T/C [27]: 69.5% | viability, T/C [28]: 78.2% | viability, T/C [17]: 90.9% | viability, T/C [18]: 83.8% | viability, T/C [19]: 66.8% | viability, T/C [20]: 75.2% | viability, T/C [29]: 77% | viability, T/C [30]: 76.9%

Nc1ncn(C2CC(O)C(CO)S2)c(=O)n1 (stereo not given) + CC(CO)NC(=O)c1cc(-c2ccc(Cl)cc2)nn(-c2cnn(C)c2)c1=O
IC50 (second compound 0.1 µM): > 300 nM | IC50 (second compound 0.316 µM): > 300 nM | IC50 (second compound 1 µM): > 300 nM | IC50 (second compound 3.16 µM): > 300 nM | IC50 (second compound 10 µM): > 300 nM | viability, T/C (second compound 0.1 µM, first compound 0.000949 µM): 106% | viability, T/C (second compound 0.1 µM, first compound 0.003 µM): 109% | viability, T/C [31]: 92.5% | viability, T/C [32]: 109% | viability, T/C [33]: 104% | viability, T/C [34]: 86.3% | viability, T/C (second compound 0.316 µM, first compound 0.000949 µM): 99.5% | viability, T/C (second compound 0.316 µM, first compound 0.003 µM): 95.5% | viability, T/C [35]: 105% | viability, T/C [36]: 97% | viability, T/C [37]: 104% | viability, T/C [38]: 95% | viability, T/C (second compound 1 µM, first compound 0.000949 µM): 98.2% | viability, T/C (second compound 1 µM, first compound 0.003 µM): 105% | viability, T/C [39]: 113% | viability, T/C [40]: 100% | viability, T/C [41]: 106% | viability, T/C [42]: 96.9% | viability, T/C (second compound 3.16 µM, first compound 0.000949 µM): 103% | viability, T/C (second compound 3.16 µM, first compound 0.003 µM): 100% | viability, T/C [43]: 103% | viability, T/C [44]: 112% | viability, T/C [45]: 89.5% | viability, T/C [46]: 90.5% | viability, T/C (second compound 10 µM, first compound 0.000949 µM): 86.8% | viability, T/C (second compound 10 µM, first compound 0.003 µM): 84.1% | viability, T/C [47]: 101% | viability, T/C [48]: 100% | viability, T/C [49]: 102% | viability, T/C [50]: 87.6%

O=C(C=Cn1cnc(-c2cc(C(F)(F)F)cc(C(F)(F)F)c2)n1)NNc1cnccn1 + CC(CO)NC(=O)c1cc(-c2ccc(Cl)cc2)nn(-c2cnn(C)c2)c1=O
IC50 (second compound 0.1 µM): > 3000 nM | IC50 (second compound 0.316 µM): > 3000 nM | IC50 (second compound 1 µM): > 3000 nM | IC50 (second compound 3.16 µM): > 3000 nM | IC50 (second compound 10 µM): 2590 nM | viability, T/C [31]: 92.4% | viability, T/C [32]: 102% | viability, T/C [33]: 92.2% | viability, T/C [34]: 95.1% | viability, T/C (second compound 0.1 µM, first compound 0.949 µM): 82.3% | viability, T/C (second compound 0.1 µM, first compound 3 µM): 59.6% | viability, T/C [35]: 93.8% | viability, T/C [36]: 89.6% | viability, T/C [37]: 101% | viability, T/C [38]: 99.7% | viability, T/C (second compound 0.316 µM, first compound 0.949 µM): 58.9% | viability, T/C (second compound 0.316 µM, first compound 3 µM): 68.4% | viability, T/C [39]: 79.7% | viability, T/C [40]: 101% | viability, T/C [41]: 93.9% | viability, T/C [42]: 76.5% | viability, T/C (second compound 1 µM, first compound 0.949 µM): 59.1% | viability, T/C (second compound 1 µM, first compound 3 µM): 56.1% | viability, T/C [43]: 91.3% | viability, T/C [44]: 97% | viability, T/C [45]: 84.9% | viability, T/C [46]: 99% | viability, T/C (second compound 3.16 µM, first compound 0.949 µM): 62.7% | viability, T/C (second compound 3.16 µM, first compound 3 µM): 56.6% | viability, T/C [47]: 93.1% | viability, T/C [48]: 87.2% | viability, T/C [49]: 71.8% | viability, T/C [50]: 106% | viability, T/C (second compound 10 µM, first compound 0.949 µM): 82% | viability, T/C (second compound 10 µM, first compound 3 µM): 44.5%
